Reference: patent US4260774A, “5-Carbamoyl imidazoles” (Sumitomo Chemical Company, Limited, priority 1976, dated 1981)

Tests used:
[1] = in words; literature; cited from earlier work
[2] = test system: L5178Y cells; settings: in words; literature; suggested due to metabolic conversion to bredinin; cited from earlier work
[3] = test system: Sarcoma 180; assay: Antitumor effect on mouse experimental tumor Sarcoma 180 (solid); format: in vivo, mouse (ICR-JCL male mice); settings: Sarcoma-180, ip, 240 h; for inhibition in vivo at 100 mg/kg: 100 mg/kg i.p.
Method: ICR-JCL male mice, 5 weeks old, weighing between 23 and 26 grams were used. Each test group was composed of 5 mice. One million cells of Sarcoma 180 were injected intramusculary in hind leg. The drug was administered intrapenitoneally at day 1, 3, 5, 7 and 9. After killing the mice at day 10, tumors were removed and weighed. The tumor inhibitory ratio was calculated according to the following formula. [formula]

[4] = test system: plaque forming cell (PFC); assay: Immunosuppressive activity: plaque forming cell (PFC) number by Cunningham method in mice injected with sheep red blood cells; format: in vivo; settings: days 0 to 3, measured day 4
Method: The immunosuppressive activities of the compounds of the present invention, Azathioprine and 6-mercaptopurine are given in the following table. After a sheep red blood cell preparation (SRBC) was injected in mice, the compounds were administered orally once a day on days 0 to 3. The plaque forming cell (PFC) number was measured on day 4 by Cunningham method. [Cunningham A. J. et al. Immunol. 14, 599 (1968)]

[5] = test system: mouse leukemia P388; assay: Antitumor effect on mouse experimental tumor P388 leukemia; format: in vivo, CDF1 mouse; settings: day 1 & 5
From the text: The antitumor activities of the compounds of the present invention were estimated according to the methods described in "Oyo-Yakuri," Vol. 14, P. 521 (in Japanese).
animals: CDF1 mouse (6 mice/group)
tumor: mouse leukemia P388
inoculum size: 10^6 cells/mouse
day of administration: day 1 & 5
administration route: i.p.
evaluation: median survival time

[6] = test system: lymphatic leukemia L1210; settings: in words; literature; cited from earlier work
[7] = day 1, 3, 5, 7 and 9, tumor weight day 10, read-out: Inhibition Ratio (%) Sarcoma 180 (solid)
[8] = read-out: Inhibition Ratio (%) Sarcoma 180 (solid)

SMILES: NC(=O)c1nc[nH]c1O [4-carbamoylimidazolium-5-olate]
- immunosuppressive activity / effects [1]: immunosuppressive effects
- growth inhibitory effects on L5178Y cells [2]: growth inhibitory effects

SMILES: N#Cc1cccc(C(=O)Oc2nc[nH]c2C(N)=O)c1 [5-Carbamoyl-1H-imidazol-4-yl m-cyanobenzoate]
- inhibition in vivo at 100 mg/kg [3, 7]: 38.3%

SMILES: NC(=O)c1[nH]cnc1OC(=O)c1ccc(F)cc1 [5-Carbamoyl-1H-imidazol-4-yl p-fluorobenzoate]
- inhibition in vivo at 100 mg/kg [3, 7]: 36%

SMILES: Cc1ccc(C(=O)Oc2nc[nH]c2C(N)=O)cc1 [5-Carbamoyl-1H-imidazol-4-yl p-methylbenzoate]
- inhibition in vivo at 100 mg/kg [3, 7]: 38.3%

SMILES: NC(=O)c1[nH]cnc1OC(=O)c1ccc([N+](=O)[O-])cc1 [5-Carbamoyl-1H-imidazol-4-yl p-nitrobenzoate]
- inhibition in vivo at 100 mg/kg [3, 7]: 44.7%

SMILES: NC(=O)c1[nH]cnc1OC(=O)c1ccccc1 [5-Carbamoyl-1H-imidazole-4-yl benzoate, 5-carbamoyl-1H-imidazol-4-yl benzoate]
- Effects PFC/spleen × 10^-4 ([4]; 25 mg/kg/day p.o.): 19.88 ± 6.06 PFC/spleen × 10^-4
- Suppression (%) ([4]; 25 mg/kg/day p.o.): 68.1%
- Effects PFC/spleen × 10^-4 ([4]; 100 mg/kg/day p.o.): 8.63 ± 2.61 PFC/spleen × 10^-4
- Suppression (%) ([4]; 100 mg/kg/day p.o.): 89.4%

SMILES: O=c1[nH]cc(F)c(=O)[nH]1 [5-Fluorouracil, reference compound]
- inhibition in vivo at 30 mg/kg [3, 8]: 66%

SMILES: NC(=O)c1[nH]cnc1OC(=O)C12CC3CC(CC(C3)C1)C2 [5-carbamoyl-1H-imidazol-4-yl 1-adamantanecarboxylate]
- Effects PFC/spleen × 10^-4 ([4]; 25 mg/kg/day p.o.): 14.19 ± 2.24 PFC/spleen × 10^-4
- Suppression (%) ([4]; 25 mg/kg/day p.o.): 77.2%
- Effects PFC/spleen × 10^-4 ([4]; 100 mg/kg/day p.o.): 5.19 ± 1.29 PFC/spleen × 10^-4
- Suppression (%) ([4]; 100 mg/kg/day p.o.): 93.6%
- inhibition in vivo at 50 mg/kg ([3]; 50 mg/kg i.p., day 1, 3, 5, 7 and 9, tumor weight day 10, read-out: Inhibition Ratio (%) Sarcoma 180 (solid)): 53.9%
- inhibition in vivo at 100 mg/kg [3, 7]: 71.4%
- inhibition in vivo at 200 mg/kg ([3]; 200 mg/kg i.p., day 1, 3, 5, 7 and 9, tumor weight day 10, read-out: Inhibition Ratio (%) Sarcoma 180 (solid)): 88.8%
- inhibition in vivo at 206 mg/kg ([3]; 206 mg/kg i.p., day 1, 3, 5, 7 and 9, tumor weight day 10, read-out: Inhibition Ratio (%) Sarcoma 180 (solid)): 100%
- Evaluation T/C (%) P388 (median survival time) ([5]; 100 mg/kg i.p.): 112%
- Evaluation T/C (%) P388 (median survival time) ([5]; 200 mg/kg i.p.): 120%
- Evaluation T/C (%) P388 (median survival time) ([5]; 400 mg/kg i.p.): 138%

SMILES: NC(=O)c1[nH]cnc1OC(=O)c1ccc2c(c1)OCO2 [5-carbamoyl-1H-imidazol-4-yl 3,4-methylenedioxybenzoate]
- inhibition in vivo at 100 mg/kg [3, 7]: 65.1%

SMILES: NC(=O)c1[nH]cnc1OC(=O)c1ccc(Br)cc1 [5-carbamoyl-1H-imidazol-4-yl p-bromobenzoate]
- inhibition in vivo at 100 mg/kg [3, 7]: 66%

SMILES: NC(=O)c1[nH]cnc1OC(=O)c1ccc(Cl)cc1 [5-carbamoyl-1H-imidazol-4-yl p-chlorobenzoate]
- Effects PFC/spleen × 10^-4 ([4]; 25 mg/kg/day p.o.): 22.06 ± 5.37 PFC/spleen × 10^-4
- Suppression (%) ([4]; 25 mg/kg/day p.o.): 64.6%
- inhibition in vivo at 100 mg/kg [3, 7]: 49.1%

SMILES: Sc1ncnc2nc[nH]c12 [6-Mercaptopurine, 6-mercaptopurine, reference compound]
- Effects PFC/spleen × 10^-4 ([4]; 25 mg/kg/day p.o.): 30.78 ± 6.28 PFC/spleen × 10^-4
- Suppression (%) ([4]; 25 mg/kg/day p.o.): 60.2%

SMILES: Cn1cnc([N+](=O)[O-])c1Sc1ncnc2nc[nH]c12 [Azathioprine, 6-(1-methyl-4-nitro-5-imidazolyl)mercaptopurine, reference compound]
- Effects PFC/spleen × 10^-4 ([4]; 100 mg/kg/day p.o.): 26.73 PFC/spleen × 10^-4
- Suppression (%) ([4]; 100 mg/kg/day p.o.): 81.6%

SMILES: CO[C@@]12[C@H](COC(N)=O)C3=C(C(=O)C(C)=C(N)C3=O)N1C[C@@H]1N[C@@H]12 [Mitomycin C, reference compound]
- inhibition in vivo at 2 mg/kg [3, 8]: 74%

SMILES: NC(=O)c1ncn([C@@H]2O[C@H](CO)[C@@H](O)[C@H]2O)c1O [bredinin, 4-carbamoyl-1-β-D-ribofuranosylimidazolium-5-olate]
- immunosuppressive activity / effects [1]: has immunosuppressive activity
- antitumor activity against lymphatic leukemia L1210 [6]: weak antitumor activity
